Measured values as given in patent US20240368133A1, “Compounds for the Treatment of Pain, in Particular, Neuropathic Pain, and/or Other Diseases or Disorders that are Associated with AT2R and/or AT2R Mediated Signaling” (Confo Therapeutics N.V., priority 2021, published 2024).
pIC50: −log10 of the molar value.

Key:
human AT1R = human AT1R (Homo sapiens (Human), UniProt P30556); test: Counterscreen radioligand binding assay, displacement of 125I-[Sar1, Ile8]-Angiotensin II, hAT1R WT; conditions: for inhibition at 1 µM / inhibition at 10 µM: 125I-[Sar1, Ile8]-Ang II, semi-quantitative score; for inhibition at 1 µM: compound at 1 μM, read-out: % Displaced radioligand at 1 μM; for inhibition at 10 µM: compound at 10 μM, read-out: % Displaced radioligand at 10 μM; for pIC50: HEK-293 cell membranes, read-out: Binding affinity On hAT1R IC50
In short: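 Compounds displaced 0.05 nM 125I-[Sar1, Ile8]-Ang II from human AT1R in HEK-293 membranes (1 h, 25° C; Tris/MgCl2/EDTA/BSA buffer, pH 7.4). Readout was filtration and scintillation counting, with non-specific binding set by 10 μM [Sar1]-Ang II. Values are % displacement at 1 μM and […], or IC50 from eight-point four-parameter fits.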

[1] = Liver microsomal stability, rat; format: in vitro ADME; conditions: male, pH 7.4, liver microsomes
Experimental: (§1) Mouse hepatic microsomes were isolated from pooled (50), perfused livers of male Balb/c mice. Rat hepatic microsomes were isolated from pooled (15), perfused livers of male Wistar rats. Isolation was performed according to the standard protocol (Hill, J. R. in Current Protocols in Pharmacology 7.8.1-7.8.11, Wiley Interscience, 2003). The batches of microsomes were tested for quality control using Imipramine, Propranolol and Verapamil as reference compounds.
(§2) Microsomal incubations were carried out in 96-well plates in 5 aliquots of 40 μL each (one for each time point). Liver microsomal incubation medium contained PBS (100 mM, pH 7.4), MgCl2 (3.3 mM), NADPH (3 mM), glucose-6-phosphate (5.3 mM), glucose-6-phosphate dehydrogenase (0.67 units/ml) with 0.42 mg of liver microsomal protein per ml. Control incubations were performed replacing the NADPH-cofactor system with PBS. Test compound (2 μM, final solvent concentration 1.6%) was incubated with microsomes at 37° C., shaking at 100 rpm. Incubations were performed in duplicates. Five time points over 40 minutes have been analyzed. The reactions were stopped by adding 12 volumes of 90% acetonitrile-water to incubation aliquots, followed by protein sedimentation by centrifuging at 5500 rpm for 3 minutes. […]. Supernatants were analyzed using the HPLC system coupled with tandem mass spectrometer (API3000 PE Sciex). Acquisition and analysis of the data were performed using Analyst 1.5.2 software (PE Sciex). The elimination constant (kel), half-life (t½) and intrinsic clearance (Clint) were determined in plot of […] versus time, using linear regression analysis:
(§3) Mouse hepatic microsomes were isolated from pooled, perfused livers of male CD1 mice. Rat hepatic microsomes were isolated from pooled, perfused livers of male Sprague Dawley rats. Dog hepatic microsomes were isolated from pooled, perfused livers of male Beagle dogs. The batches of microsomes were tested for quality control using Testosterone, Propranolol and Caffeine as reference compounds.
(§4) A 10 mM stock solution of compound in DMSO is diluted three-fold in DMSO. This pre-diluted compound solution is then further diluted to 2 μM in a 50 mM phosphate buffer (PBS, pH 7.4) and pre-warmed at 37° C. This compound dilution is mixed F2 with microsomal/cofactor mix at 37° C. under shaking at 300 rpm. Final reaction conditions are: 100 μL incubation volume, 1 μM of test compound (in duplicate), <0.1% DMSO, 0.5 mg/mL microsomes, 0.6 U/mL Glucose-6-phosphate-dehydrogenase (G6PDH, Roche, 10127671001), 3.3 mM MgCl2 (Sigma, M2670), 3.3 mM glucose-6-phosphate (Sigma, G-7879) and 1.3 mM NADP+ (Sigma, N-0505).
(§5) After 60 min of incubation at 300 rpm and 37° C., the reaction was stopped with 3 volumes of STOP solution (acetonitrile/MeOH 2/1 with diclofenac as internal standard). For the time point zero, 3 volumes of STOP solution were added to the compound dilution before the microsome mix was added. Six time points over 60 minutes have been analyzed. The samples of all time points were centrifuged, filtered and the supernatant analyzed by LCMS/MS (systems API4000).
(§6) The instrument responses (peak areas/IS peak area) were referenced to the zero time-point samples (considered as 100%) in order to determine the percentage of compound remaining.
(§7) Testosterone (1 μM) and Propranolol and Caffeine (1 μM) were used as reference compounds, being unstable and stable compounds respectively. If the microsomal stability values for these controls are not in the range determined by the historical data, the assay is not validated. The solubility of the compound in the final test concentration in 50 mM buffer pH 7.4 is checked by microscope to indicate whether precipitation is observed or not. If a precipitate is observed, no data of microsomal stability is generated.

[2] = Liver microsomal stability, mouse; format: in vitro ADME; conditions: male, pH 7.4, liver microsomes
Experimental: as §1, §2, §3, §4, §5, §6, §7

[3] = Liver microsomal stability, human; format: in vitro ADME; conditions: pH 7.4, liver microsomes
Experimental: as §2, §4, §5, §6, §7

human AT2R fused to Cb23 = human AT2R fused to Cb23 (Homo sapiens, UniProt P50052); test: Radioligand binding assay, displacement of 125I-[Sar1, Ile8]-Angiotensin II, hAT2R Cb23; conditions: displacement of 125I-[Sar1, Ile8]-Angiotensin II, human AT2R fused to Cb23, HEK-293 cell membrane preparations; read-out: Binding affinity on hAT2R_Cb23 IC50
In short: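 Membranes from HEK-293 cells expressing human AT2R fused to Cb23 were incubated with 0.05 nM 125I-[Sar1, Ile8]-Angiotensin II in 100 μL buffer (50 mM Tris, 5 mM MgCl2, 1 mM EDTA, 0.1% BSA, pH 7.4) for one hour at 25° C. Ligands were tested as eight-point dose-response curves in duplicate, with C21 and Angiotensin II as references.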

[4] = Metabolic stability in hepatocytes, rat; format: in vitro ADME; conditions: hepatocytes (cryopreserved), read-out: Rat Clint (μL/min/10^6 cells)
Experimental: The aim of this assay is to determine the metabolic stability of the compound in hepatocytes (cryopreserved) of different species (mouse CD1, rat Sprague Dawley, dog Beagle). Low hepatocyte stability may result in the formation of unwanted metabolites, high clearance, and therefore is not desirable. The decrease in parent was assessed by measuring the percentage remaining by LC-MS/MS analysis. The batches of hepatocytes were tested for quality control using Testosterone, Umbelliferone and Caffeine as reference compounds.
A 10 mM stock solution of test compound in DMSO was first diluted in DMSO to 3 mM, and then in modified Krebs-Henseleit buffer (Sigma, K3753) to 5 μM. This compound dilution was added to a suspension of pooled cryopreserved hepatocytes (BioIVT) at 37° C. under gentle shaking. Final reaction conditions were: 1 μM of test compound, <0.1% DMSO, 0.5 million viable hepatocytes/mL, and 75 μL incubation volume.
After 0, 10, 20, 45, 90, 120 and 180 min of incubation, the reaction was terminated with 3 volumes of MeCN:MeOH (2:1) containing diclofenac as analytical internal standard. Samples were mixed, centrifuged and the supernatant analyzed by LC-MS/MS (systems API4000). The instrument responses (ratios of test compound and internal standard peak areas) were referenced to the zero time point samples (considered as 100%) in order to determine the percentage of compound remaining. Plots of percentage compound remaining were used to determine the intrinsic clearance in the hepatocyte incubations.
Testosterone (1 μM) and Umbelliferone (1 μM) and Caffeine (1 μM) were used as reference compounds, being unstable and stable compounds respectively. If the hepatocyte stability values for these controls are not in the range determined by the historical data, the assay is not validated.

[5] = Liver microsomal stability, dog; format: in vitro ADME; conditions: male, Beagle, pH 7.4, liver microsomes
Experimental: as §3, §4, §5, §6, §7

CYP2D6 = CYP2D6 (Homo sapiens (Human), UniProt P10635); test: CYP inhibition, CYP2D6; format: in vitro ADME; conditions: CYP 2D6, ref. inhibitor conc. 0.5 μM
Experimental: The aim of this assay is to determine the inhibitory potential of a test compound. A major concern for drug-drug-interaction is cytochrome P450 inhibition. Reversible CYP inhibition was determined in human liver microsomes using specific probe substrates for human cytochrome P450 isoenzymes CYP1A2, 2C9, 2C19, 2D6 and 3A4. […]
A 10 mM stock solution of test compound is prepared in methanol. This stock is further serially diluted 1:3 in methanol and then added to mixture containing 50 mM potassium phosphate buffer pH7.4, human liver microsomes (BD Gentest) and probe substrate. After pre-warming 5 min at 37° C., the reaction is started by adding co-factor mix ([…] glucose-6-phosphate, 1.7 mg/mL NADP, 6 U/mL of glucose-6-phosphate dehydrogenase), resulting in a final concentration of test compound at 10 μM (2% MeOH).
Final concentrations of co-factor mix components are as follows: 1.56 mg/mL glucose-6-phosphate, 0.34 mg/mL NADP, 1.2 U/mL of glucose-6-phosphate dehydrogenase.
After incubation at 37° C., the reaction (aliquot of 50 μL) is terminated with 150 μL CH3CN:MeOH (2:1) solution with internal standard (warfarin for 2C9, diclofenac for all other tested isoforms). Samples are centrifuged and the supernatant fractions analyzed by LC-MS/MS.
The instrument responses (ratio of test compound and internal standard peak areas) are referenced to those for solvent controls (assumed as 100%) in order to determine the percentage reduction in probe metabolism. Percent of control activity vs. concentration plots are generated and fitted using GraphPad Prism software to generate IC50.

human AT1R, sequence (P30556 whole entry): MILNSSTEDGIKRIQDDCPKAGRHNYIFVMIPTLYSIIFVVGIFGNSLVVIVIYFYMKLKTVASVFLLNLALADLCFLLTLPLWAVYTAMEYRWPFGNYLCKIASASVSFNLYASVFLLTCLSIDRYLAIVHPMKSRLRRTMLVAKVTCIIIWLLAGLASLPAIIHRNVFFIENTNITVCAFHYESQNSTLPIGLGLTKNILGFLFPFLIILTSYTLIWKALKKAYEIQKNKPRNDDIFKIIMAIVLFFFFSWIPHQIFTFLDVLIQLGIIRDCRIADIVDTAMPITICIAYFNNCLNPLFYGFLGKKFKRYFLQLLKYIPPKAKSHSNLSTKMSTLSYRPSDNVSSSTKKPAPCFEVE
human AT2R fused to Cb23, sequence (P50052 whole entry, looked up, the tested form may be a part): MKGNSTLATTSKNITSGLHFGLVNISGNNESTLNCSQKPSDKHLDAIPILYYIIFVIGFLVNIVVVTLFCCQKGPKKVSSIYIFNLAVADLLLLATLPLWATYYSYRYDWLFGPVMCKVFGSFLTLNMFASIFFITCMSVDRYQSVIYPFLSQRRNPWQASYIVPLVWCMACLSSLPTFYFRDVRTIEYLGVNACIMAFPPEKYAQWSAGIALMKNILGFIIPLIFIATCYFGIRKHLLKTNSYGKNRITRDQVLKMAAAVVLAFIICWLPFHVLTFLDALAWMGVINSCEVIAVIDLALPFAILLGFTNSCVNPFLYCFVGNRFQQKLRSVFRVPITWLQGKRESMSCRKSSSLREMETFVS
CYP2D6, sequence (P10635 whole entry): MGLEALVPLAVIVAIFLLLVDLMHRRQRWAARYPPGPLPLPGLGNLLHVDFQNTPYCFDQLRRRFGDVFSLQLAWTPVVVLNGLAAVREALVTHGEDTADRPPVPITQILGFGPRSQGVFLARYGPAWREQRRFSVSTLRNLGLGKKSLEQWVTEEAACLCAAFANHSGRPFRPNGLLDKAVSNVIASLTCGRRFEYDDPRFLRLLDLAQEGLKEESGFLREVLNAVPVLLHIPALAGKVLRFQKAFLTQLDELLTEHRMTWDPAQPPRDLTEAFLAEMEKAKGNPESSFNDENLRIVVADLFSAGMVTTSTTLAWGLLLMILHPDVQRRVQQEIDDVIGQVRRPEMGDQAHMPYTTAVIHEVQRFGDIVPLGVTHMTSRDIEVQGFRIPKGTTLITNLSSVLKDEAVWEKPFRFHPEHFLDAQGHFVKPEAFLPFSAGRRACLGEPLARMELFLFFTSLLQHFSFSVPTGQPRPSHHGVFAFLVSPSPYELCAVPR

Row | inhibition at 1 µM (human AT1R) [%] | inhibition at 10 µM (human AT1R) [%] | pIC50 (human AT1R) | microsomal CLint [1] [µL/min/mg] | microsomal CLint [2] [µL/min/mg] | microsomal CLint [3] [µL/min/mg] | pIC50 (human AT2R fused to Cb23) | hepatocyte CLint [4] [µL/min/1e6 cells] | microsomal CLint at 1 µM [5] [µL/min/mg] | SMILES | inhibition at 25 min, 0.5 µM (CYP2D6) [%]
1 | < 30 | 30 to 50 | 4.56 | 13 | 14 | 32 | 6.20 |  |  | CC(C)Cc1ccc(-c2nn[nH]n2)c(N2CCN(Cc3nc4ccccc4s3)CC2)c1 [Compound A-48, 2-[[4-[5-isobutyl-2-(2H-tetrazol-5-yl)-phenyl]piperazin-1-yl]methyl]-1,3-benzothiazole] | 
2 | < 30 | < 30 |  | 28.3 |  | 97.6 | 7.83 |  | < 11.7 | Cc1cccnc1CN1CCN(c2cc(CC(C)C)cc(F)c2-c2nn[nH]n2)C[C@@H]1C [Compound A-228, (2S)-4-[3-fluoro-5-isobutyl-2-(2H-tetrazol-5-yl)phenyl]-2-methyl-1-[(3-methyl-2-pyridyl)methyl]piperazine] | 
3 | < 30 | < 30 |  | 24.8 |  | 21.6 | 8.10 |  | < 11.7 | Cc1ccnc(CN2CCN(c3cc(CC(C)C)cc(F)c3-c3nn[nH]n3)C[C@@H]2C)c1 [Compound A-229, (2S)-4-[3-fluoro-5-isobutyl-2-(2H-tetrazol-5-yl)phenyl]-2-methyl-1-[(4-methyl-2-pyridyl)methyl]piperazine] | 

Second part, the molecule before the results:

Row | SMILES | inhibition at 1 µM (human AT1R) [%] | inhibition at 10 µM (human AT1R) [%] | pIC50 (human AT1R) | microsomal CLint [1] [µL/min/mg] | microsomal CLint [2] [µL/min/mg] | microsomal CLint [3] [µL/min/mg] | pIC50 (human AT2R fused to Cb23) | hepatocyte CLint [4] [µL/min/1e6 cells] | microsomal CLint at 1 µM [5] [µL/min/mg] | inhibition at 25 min, 0.5 µM (CYP2D6) [%]
4 | CC(C)Cc1cc(F)c(-c2nn[nH]n2)c(N2CC(C)N(Cc3cccnn3)C(C)C2)c1 (stereo not drawn) [Compound A-184, 3-[[4-[3-fluoro-5-isobutyl-2-(2H-tetrazol-5-yl)phen-yl]-2,6-dimethyl-piperazin-1-yl]-methyl]pyridazine] | < 30 | < 30 | 4.47 | 19 |  | 18 | 9.05 | 2 |  | 
5 | COc1ccnc(CN2CCN(c3cc(CC(C)C)cc(F)c3-c3nn[nH]n3)C[C@@H]2C)c1 [Compound A-227, (2S)-4-[3-fluoro-5-isobutyl-2-(2H-tetrazol-5-yl)phenyl]-1-[(4-methoxy-2-pyridyl)methyl]-2-methyl-piperazine] | < 30 | < 30 |  | 22.3 |  | 16.5 | 8.06 |  | < 11.7 | 
6 | C=C[C@H]1C[N@@]2CC[C@H]1C[C@@H]2[C@@H](O)c1ccnc2ccc(OC)cc12 [quinidine, reference compound] |  |  |  |  |  |  |  |  |  | 87.3
